Measurements taken from ChEMBL document CHEMBL1144896 (2003).

Legend:
NCI-H1299 [1] = assay: Compound was tested for human telomerase reverse transcriptase-SEAP (hTERT-SEAP) activity in non-small cell lung cancer H1299 cell at 23 uM concentration; format: functional
NCI-H1299 [2] = assay: (§1) hTERT-SEAP (Human telomerase reverse transcriptase-SEAP) activity in non-small cell lung cancer H1299 cell at 2.3 uM concentration and level of cell viability determined in MTT assay; format: functional
BJ [3] = assay: hTERT-SEAP (Human telomerase reverse transcriptase-SEAP) activity in immortalized hTERT-BJI at 230.0 uM concentration and level of cell viability determined in MTT assay; format: functional
BJ [4] = assay: Compound was tested for human telomerase reverse transcriptase-SEAP (hTERT-SEAP) activity in immortalized hTERT-BJI at 230.0 uM concentration; format: functional
NCI-H1299 [5] = assay: hTERT-SEAP (Human telomerase reverse transcriptase-SEAP) activity in non-small cell lung cancer H1299 cell at 23 uM concentration and level of cell viability determined in MTT assay; format: functional
NCI-H1299 [6] = assay: as §1; format: functional; remark: listed apart in the source
NCI-H1299 [7] = assay: Compound was tested for human telomerase reverse transcriptase-SEAP (hTERT-SEAP) activity in non-small cell lung cancer H1299 cell at 230.0 uM concentration; format: functional
NCI-H1299 [8] = assay: hTERT-SEAP (Human telomerase reverse transcriptase-SEAP) activity in non-small cell lung cancer H1299 cell at 230.0 uM concentration and level of cell viability determined in MTT assay; format: functional
NCI-H1299 [9] = assay: (§2) Compound was tested for human telomerase reverse transcriptase-SEAP (hTERT-SEAP) activity in non-small cell lung cancer H1299 cell at 2.3 uM concentration; format: functional
BJ [10] = assay: Compound was tested for human telomerase reverse transcriptase-SEAP (hTERT-SEAP) activity in immortalized hTERT-BJI at 23 uM concentration; format: functional
BJ [11] = assay: hTERT-SEAP (Human telomerase reverse transcriptase-SEAP) activity in immortalized hTERT-BJI at 23 uM concentration and level of cell viability determined in MTT assay; format: functional
NCI-H1299 [12] = assay: as §2; format: functional; remark: listed apart in the source
NCI-H1299 [13] = assay: hTERT-SEAP (Human telomerase reverse transcriptase-SEAP) activity in non-small cell lung cancer H1299 cell at 28 uM concentration and level of cell viability determined in MTT assay; format: functional
BJ [14] = assay: Compound was tested for human telomerase reverse transcriptase-SEAP (hTERT-SEAP) activity in immortalized hTERT-BJI at 2.8 uM concentration; format: functional
BJ [15] = assay: Compound was tested for human telomerase reverse transcriptase-SEAP (hTERT-SEAP) activity in immortalized hTERT-BJI at 280.0 uM concentration; format: functional
NCI-H1299 [16] = assay: hTERT-SEAP (Human telomerase reverse transcriptase-SEAP) activity in non-small cell lung cancer H1299 cell at 280.0 uM concentration and level of cell viability determined in MTT assay; format: functional
NCI-H1299 [17] = assay: Compound was tested for human telomerase reverse transcriptase-SEAP (hTERT-SEAP) activity in non-small cell lung cancer H1299 cell at 28.0 uM concentration; format: functional
BJ [18] = assay: hTERT-SEAP (Human telomerase reverse transcriptase-SEAP) activity in immortalized hTERT-BJI at 28.0 uM concentration and level of cell viability determined in MTT assay; format: functional
BJ [19] = assay: hTERT-SEAP (Human telomerase reverse transcriptase-SEAP) activity in immortalized hTERT-BJI at 2.8 uM concentration and level of cell viability determined in MTT assay; format: functional
BJ [20] = assay: Compound was tested for human telomerase reverse transcriptase-SEAP (hTERT-SEAP) activity in immortalized hTERT-BJI at 28.0 uM concentration; format: functional
BJ [21] = assay: hTERT-SEAP (Human telomerase reverse transcriptase-SEAP) activity in immortalized hTERT-BJI at 280.0 uM concentration and level of cell viability determined in MTT assay; format: functional
NCI-H1299 [22] = assay: Compound was tested for human telomerase reverse transcriptase-SEAP (hTERT-SEAP) activity in non-small cell lung cancer H1299 cell at 280.0 uM concentration; format: functional
NCI-H1299 [23] = assay: hTERT-SEAP (Human telomerase reverse transcriptase-SEAP) activity in non-small cell lung cancer H1299 cell at 2.8 uM concentration and level of cell viability determined in MTT assay; format: functional
NCI-H1299 [24] = assay: Compound was tested for human telomerase reverse transcriptase-SEAP (hTERT-SEAP) activity in non-small cell lung cancer H1299 cell at 2.8 uM concentration; format: functional
BJ [25] = assay: Compound was tested for cytomegalovirus or (pPCMV-SEAP) activity in immortalized hTERT-BJ1 at 2.2 uM concentration; format: functional, Homo sapiens
BJ [26] = assay: pPCMV-SEAP (cytomegalovirus-SEAP) activity in immortalized hTERT-BJ1 at 2.2 uM concentration and level of cell viability determined in MTT assay; format: functional, Homo sapiens
BJ [27] = assay: hTERT-SEAP (Human telomerase reverse transcriptase-SEAP) activity in immortalized hTERT-BJI at 220.0 uM concentration and level of cell viability determined in MTT assay; format: functional
NCI-H1299 [28] = assay: hTERT-SEAP (Human telomerase reverse transcriptase-SEAP) activity in non-small cell lung cancer H1299 cell at 2.2 uM concentration and level of cell viability determined in MTT assay; format: functional
BJ [29] = assay: Compound was tested for cytomegalovirus or (pPCMV-SEAP) activity in immortalized hTERT-BJ1 at 220 uM concentration; format: functional, Homo sapiens
BJ [30] = assay: pPCMV-SEAP (cytomegalovirus-SEAP) activity in immortalized hTERT-BJ1 at 22 uM concentration and level of cell viability determined in MTT assay; format: functional, Homo sapiens
BJ [31] = assay: hTERT-SEAP (Human telomerase reverse transcriptase-SEAP) activity in immortalized hTERT-BJI at 2.2 uM concentration and level of cell viability determined in MTT assay; format: functional
NCI-H1299 [32] = assay: Compound was tested for human telomerase reverse transcriptase-SEAP (hTERT-SEAP) activity in non-small cell lung cancer H1299 cell at 22 uM concentration; format: functional
BJ [33] = assay: Compound was tested for human telomerase reverse transcriptase-SEAP (hTERT-SEAP) activity in immortalized hTERT-BJI at 220.0 uM concentration; format: functional
BJ [34] = assay: pPCMV-SEAP (cytomegalovirus-SEAP) activity in immortalized hTERT-BJ1 at 220 uM concentration and level of cell viability determined in MTT assay; format: functional, Homo sapiens
NCI-H1299 [35] = assay: Compound was tested for human telomerase reverse transcriptase-SEAP (hTERT-SEAP) activity in non-small cell lung cancer H1299 cell at 220.0 uM concentration; format: functional
NCI-H1299 [36] = assay: hTERT-SEAP (Human telomerase reverse transcriptase-SEAP) activity in non-small cell lung cancer H1299 cell at 220.0 uM concentration and level of cell viability determined in MTT assay; format: functional
BJ [37] = assay: Compound was tested for human telomerase reverse transcriptase-SEAP (hTERT-SEAP) activity in immortalized hTERT-BJI at 2.2 uM concentration; format: functional
BJ [38] = assay: Compound was tested for human telomerase reverse transcriptase-SEAP (hTERT-SEAP) activity in immortalized hTERT-BJI at 22 uM concentration; format: functional
BJ [39] = assay: hTERT-SEAP (Human telomerase reverse transcriptase-SEAP) activity in immortalized hTERT-BJI at 22 uM concentration and level of cell viability determined in MTT assay; format: functional
NCI-H1299 [40] = assay: Compound was tested for human telomerase reverse transcriptase-SEAP (hTERT-SEAP) activity in non-small cell lung cancer H1299 cell at 2.2 uM concentration; format: functional
BJ [41] = assay: Compound was tested for cytomegalovirus or (pPCMV-SEAP) activity in immortalized hTERT-BJ1 at 22 uM concentration; format: functional, Homo sapiens
NCI-H1299 [42] = assay: hTERT-SEAP (Human telomerase reverse transcriptase-SEAP) activity in non-small cell lung cancer H1299 cell at 22 uM concentration and level of cell viability determined in MTT assay; format: functional
NCI-H1299 [43] = assay: Compound was tested for human telomerase reverse transcriptase-SEAP (hTERT-SEAP) activity in non-small cell lung cancer H1299 cell at 19 uM concentration; format: functional
NCI-H1299 [44] = assay: hTERT-SEAP (Human telomerase reverse transcriptase-SEAP) activity in non-small cell lung cancer H1299 cell at 190.0 uM concentration and level of cell viability determined in MTT assay; format: functional
NCI-H1299 [45] = assay: Compound was tested for human telomerase reverse transcriptase-SEAP (hTERT-SEAP) activity in non-small cell lung cancer H1299 cell at 190.0 uM concentration; format: functional
NCI-H1299 [46] = assay: Compound was tested for human telomerase reverse transcriptase-SEAP (hTERT-SEAP) activity in non-small cell lung cancer H1299 cell at 1.9 uM concentration; format: functional
NCI-H1299 [47] = assay: hTERT-SEAP (Human telomerase reverse transcriptase-SEAP) activity in non-small cell lung cancer H1299 cell at 1.9 uM concentration and level of cell viability determined in MTT assay; format: functional
BJ [48] = assay: hTERT-SEAP (Human telomerase reverse transcriptase-SEAP) activity in immortalized hTERT-BJI at 19 uM concentration and level of cell viability determined in MTT assay; format: functional
BJ [49] = assay: Compound was tested for human telomerase reverse transcriptase-SEAP (hTERT-SEAP) activity in immortalized hTERT-BJI at 190.0 uM concentration; format: functional
BJ [50] = assay: Compound was tested for human telomerase reverse transcriptase-SEAP (hTERT-SEAP) activity in immortalized hTERT-BJI at 19 uM concentration; format: functional
NCI-H1299 [51] = assay: hTERT-SEAP (Human telomerase reverse transcriptase-SEAP) activity in non-small cell lung cancer H1299 cell at 19 uM concentration and level of cell viability determined in MTT assay; format: functional
BJ [52] = assay: hTERT-SEAP (Human telomerase reverse transcriptase-SEAP) activity in immortalized hTERT-BJI at 190.0 uM concentration and level of cell viability determined in MTT assay; format: functional

`O=C1c2cccc(Sc3ncccn3)c2C(=O)c2cccc(Sc3ncccn3)c21` was tested, and the “Relative SEAP activity” value (NCI-H1299 [1]) was 110%, the Relative viability (NCI-H1299 [2]) was 107% and the Relative viability (BJ [3]) was 73%. For the same compound, the “Relative SEAP activity” value (BJ [4]) was 61%, the Relative viability (NCI-H1299 [5]) was 99% and the Relative viability (NCI-H1299 [6]) was 104%. The “Relative SEAP activity” value (NCI-H1299 [7]) was 49%, the Relative viability (NCI-H1299 [8]) was 44% and the “Relative SEAP activity” value (NCI-H1299 [9]) was 137%. The “Relative SEAP activity” value (BJ [10]) was 125%, the Relative viability (BJ [11]) was 103% and the “Relative SEAP activity” value (NCI-H1299 [12]) was 105%.

For `O=C1c2cccc(SCCO)c2C(=O)c2cccc(SCCO)c21`, the Relative viability (NCI-H1299 [13]) was 29%, the “Relative SEAP activity” value (BJ [14]) was 104% and the “Relative SEAP activity” value (BJ [15]) was 71%. The Relative viability (NCI-H1299 [16]) was 36%, the “Relative SEAP activity” value (NCI-H1299 [17]) was 76% and the Relative viability (BJ [18]) was 49%. For the same compound, the Relative viability (BJ [19]) was 94%, the “Relative SEAP activity” value (BJ [20]) was 98% and the Relative viability (BJ [21]) was 23%. The “Relative SEAP activity” value (NCI-H1299 [22]) was 45%, the Relative viability (NCI-H1299 [23]) was 54% and the “Relative SEAP activity” value (NCI-H1299 [24]) was 97%.

In the case of `Nc1ccccc1Sc1cccc2c1C(=O)c1cccc(Sc3ccccc3N)c1C2=O`, the “Relative SEAP activity” value (BJ [25]) is reported as 103%, the Relative viability (BJ [26]) is reported as 108% and the Relative viability (BJ [27]) is reported as 25%. For the same compound, the Relative viability (NCI-H1299 [28]) was 94%, the “Relative SEAP activity” value (BJ [29]) was 122% and the Relative viability (BJ [30]) was 109%. For the same compound, the Relative viability (BJ [31]) was 103%, the “Relative SEAP activity” value (NCI-H1299 [32]) was 96% and the “Relative SEAP activity” value (BJ [33]) was 115%. The Relative viability (BJ [34]) was 48%, the “Relative SEAP activity” value (NCI-H1299 [35]) was 59% and the Relative viability (NCI-H1299 [36]) was 14%. The “Relative SEAP activity” value (BJ [37]) was 136%, the “Relative SEAP activity” value (BJ [38]) was 141% and the Relative viability (BJ [39]) was 107%. For the same compound, the “Relative SEAP activity” value (NCI-H1299 [40]) was 108%, the “Relative SEAP activity” value (BJ [41]) was 102% and the Relative viability (NCI-H1299 [42]) was 50%.

For `O=C(Oc1cccc2c1C(=O)c1cccc(OC(=O)c3ccc(Cl)cc3)c1C2=O)c1ccc(Cl)cc1`, the “Relative SEAP activity” value (NCI-H1299 [43]) was 106%, the Relative viability (NCI-H1299 [44]) was 31% and the “Relative SEAP activity” value (NCI-H1299 [45]) was 97%. The “Relative SEAP activity” value (NCI-H1299 [46]) was 106%, the Relative viability (NCI-H1299 [47]) was 91% and the Relative viability (BJ [48]) was 89%. For the same compound, the “Relative SEAP activity” value (BJ [49]) was 107%, the “Relative SEAP activity” value (BJ [50]) was 123% and the Relative viability (NCI-H1299 [51]) was 57%. For the same compound, the Relative viability (BJ [52]) was 48%.
